Source: patent US20100196275A1, “Methods and products for neutralizing the harmful effects of combustion products” (priority 2006, published 2010)
Entries after “also recorded” stand apart in the source; their conditions may differ.

Assays:
[1] = tested on: nucleotide excision repair (NER); settings: previously found, earlier publications; cited from earlier work
[2] = tested on: nucleotide excision repair (NER); experiment: Host cell reactivation (HCR) assay; type: cell-based, human; settings: NHLF treated with Acr for 1 h, BPDE-modified luciferase plasmid
Experimental: (§1) Determination of the Effect of Acr Treatment on DNA Repair. Host cell reactivation (HCR) and in vitro DNA repair synthesis assays were performed as previously described to determine the effects of Acr treatment on DNA repair in human cells (Feng, Z., Hu, W., & Tang, M.-s. (2004) Proc. Nat. Acad. Sci. 101, 8598-8602; Feng, Z., Hu, W., Marnett, L., & Tang, M.-s. Mutat. Res. in press).

[3] = tested on: nucleotide excision repair (NER); experiment: In vitro DNA damage-specific repair synthesis assay; type: biochemical, human
Experimental: as §1

supF gene = experiment: supF shuttle vector pSP189 mutation assay in NHLF; type: cell-based, human; set-up: dose or concentration left out as unconfirmed; settings: pSP189 modified with Acr, replicated in NHLF
Experimental: Determination of Mutations Induced by Acr-DNA Adducts. The methods used for mutation detection and for mutational spectrum determination were the same as previously described (Feng, Z., Hu, W., Amin, S., & Tang, M.-s. (2003) Biochemistry 42, 7848-7854). Briefly, shuttle vector pSP189 plasmid DNA was modified with different concentrations of Acr, and transfected into NHLF for replication. Plasmids were recovered 72 h after transfection, and replicated plasmids were then transformed into MB7070 E. coli indicator cells. The supF gene in plasmids isolated from mutant white colonies were then sequenced.

[4] = rats; cited from earlier work

SMILES	effect on cellular NER capacity [1]	effect on repair of BPDE-DNA adducts (NER capacity) [2]	inhibitory effect, cell lysates directly treated versus whole cells treated ([3]; NHLF)	effect on repair of BPDE-DNA adducts (NER capacity) ([3]; NHLF cell extracts, BPDE-modified pUC18)	G to T transversions among base substitution mutants sequenced (supF gene)	mutation frequency (supF gene)	share of G to T transversions among base substitutions (supF gene)	bladder tumour occurrence [4]
CCCCCC(O)/C=C/C=O (stereo not drawn) [4-HNE]	greatly reduce cellular nucleotide excision repair (NER) capacity							
C=CC=O [Acr, Acrolein]		greatly inhibit NER for BPDE-induced DNA damage	much more pronounced in cell lysates directly treated with Acr than whole cells treated with Acr	greatly inhibit NER for BPDE-induced DNA damage	28 out of 55	120×10^−4	more than 50%	greatly enhances urinary bladder papilloma occurrence in rats; also recorded: cause bladder cancer in rats
O=CCC=O [MDA]	greatly reduce cellular nucleotide excision repair (NER) capacity							
